Results: PubChem BioAssay (NCI)
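Step 1: Grow cells in 96-well plates. Step 2: Expose to compound for 48 hours at 5 concentrations. Step 3: Interpolate endpoints linearly; if unreached, use highest concentration. The concentration for 50% growth inhibition is given as GI50. The concentration for full growth arrest is given as TGI.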

Tests used:
Experiment in all cases: DTP human tumour cell line panel, 48 h
UACC-257 melanoma = tested on: UACC-257 melanoma
IGROV1 ovarian = tested on: IGROV1 ovarian
SF-268 CNS = tested on: SF-268 CNS
RPMI-8226 leukemia = tested on: RPMI-8226 leukemia
UO-31 renal = tested on: UO-31 renal
NCI-H226 lung = tested on: NCI-H226 lung
COLO 205 colon = tested on: COLO 205 colon
SK-MEL-5 melanoma = tested on: SK-MEL-5 melanoma
NCI-H522 lung = tested on: NCI-H522 lung
KM12 colon = tested on: KM12 colon

Work on `O=C(Nc1cccc(-n2cc(-c3ccncc3)c(-c3cc(O)cc(Cl)c3)n2)c1)Nc1ccc(Cl)c(Cl)c1` yielded a GI50 (UACC-257 melanoma) of 1.95 µM, a TGI (UACC-257 melanoma) of 4.3 µM and a GI50 (IGROV1 ovarian) of 2.86 µM. The TGI (IGROV1 ovarian) was 9.23 µM, the GI50 (SF-268 CNS) was 3.22 µM and the TGI (SF-268 CNS) was 32.8 µM. For the same compound, the GI50 (RPMI-8226 leukemia) was 1.44 µM, the TGI (RPMI-8226 leukemia) was 4.3 µM and the GI50 (UO-31 renal) was 1.91 µM. For the same compound, the TGI (UO-31 renal) was 6.51 µM, the GI50 (NCI-H226 lung) was 2.28 µM and the TGI (NCI-H226 lung) was 7.16 µM. The GI50 (COLO 205 colon) was 1.96 µM, the TGI (COLO 205 colon) was 3.78 µM and the GI50 (SK-MEL-5 melanoma) was 1.62 µM. It also gave a TGI (SK-MEL-5 melanoma) of 3.04 µM, a GI50 (NCI-H522 lung) of 1.1 µM and a TGI (NCI-H522 lung) of 3.14 µM. The GI50 (KM12 colon) was 1.5 µM and the TGI (KM12 colon) was 3.69 µM.
Work on `CCCCCCCCCCCCCCCCCC(=O)[O][Sn]([CH2]CCC)([CH2]CCC)[CH2]CCC` yielded a GI50 (UACC-257 melanoma) of 0.144 µM, a TGI (UACC-257 melanoma) of 0.293 µM and a GI50 (IGROV1 ovarian) of 0.154 µM. The TGI (IGROV1 ovarian) was 0.367 µM, the GI50 (SF-268 CNS) was 0.141 µM and the TGI (SF-268 CNS) was 0.337 µM. The GI50 (RPMI-8226 leukemia) was 0.139 µM, the TGI (RPMI-8226 leukemia) was 0.602 µM and the GI50 (UO-31 renal) was 0.161 µM. For the same compound, the TGI (UO-31 renal) was 0.34 µM, the GI50 (NCI-H226 lung) was 0.162 µM and the TGI (NCI-H226 lung) was 0.319 µM. The GI50 (COLO 205 colon) was 0.171 µM, the TGI (COLO 205 colon) was 0.373 µM and the GI50 (SK-MEL-5 melanoma) was 0.141 µM. For the same compound, the TGI (SK-MEL-5 melanoma) was 0.272 µM, the GI50 (NCI-H522 lung) was 0.14 µM and the TGI (NCI-H522 lung) was 0.318 µM. The GI50 (KM12 colon) was 0.124 µM and the TGI (KM12 colon) was 0.266 µM.
`C=C1C(=O)O[C@H]2[C@H]1CC/C(COC(=O)NCc1c[nH]c3ccc(OC)cc13)=C\CC[C@@]1(C)O[C@@H]21` gave a GI50 (UACC-257 melanoma) of 2.02 µM, a TGI (UACC-257 melanoma) of 5.01 µM and a GI50 (IGROV1 ovarian) of 2.55 µM. It also gave a TGI (IGROV1 ovarian) of 7.38 µM, a GI50 (SF-268 CNS) of 2.55 µM and a TGI (SF-268 CNS) of 7.65 µM. The GI50 (RPMI-8226 leukemia) was 0.266 µM, the TGI (RPMI-8226 leukemia) was 1.52 µM and the GI50 (UO-31 renal) was 1.74 µM. It also gave a TGI (UO-31 renal) of 3.12 µM, a GI50 (NCI-H226 lung) of 14.9 µM and a TGI (NCI-H226 lung) of 35.5 µM. The GI50 (COLO 205 colon) was 1.22 µM, the TGI (COLO 205 colon) was 2.71 µM and the GI50 (SK-MEL-5 melanoma) was 1.38 µM. For the same compound, the TGI (SK-MEL-5 melanoma) was 2.69 µM, the GI50 (NCI-H522 lung) was 0.89 µM and the TGI (NCI-H522 lung) was 2.38 µM. The GI50 (KM12 colon) was 3.54 µM and the TGI (KM12 colon) was 14 µM.
Compound `COC(=O)C(=C\Sc1ccccc1)/C=C/C(=O)OC(C)(C)C` has a TGI (UACC-257 melanoma) of 26.5 µM, a TGI (IGROV1 ovarian) of 27.5 µM and a TGI (SF-268 CNS) of 31.8 µM. The TGI (RPMI-8226 leukemia) was 8.48 µM, the TGI (UO-31 renal) was 29.5 µM and the TGI (NCI-H226 lung) was 30.9 µM. The TGI (COLO 205 colon) was 14 µM, the TGI (SK-MEL-5 melanoma) was 28.6 µM and the TGI (NCI-H522 lung) was 9.9 µM. For the same compound, the TGI (KM12 colon) was 24.3 µM.
For `O=S1Cc2ccccc2CS1` (stereo unspecified), the TGI (UACC-257 melanoma) was 32 µM, the TGI (IGROV1 ovarian) was > 100 µM and the TGI (SF-268 CNS) was > 100 µM. The TGI (RPMI-8226 leukemia) was 38.2 µM, the TGI (UO-31 renal) was 56.4 µM and the TGI (NCI-H226 lung) was > 100 µM. For the same compound, the TGI (COLO 205 colon) was 28.8 µM, the TGI (SK-MEL-5 melanoma) was > 100 µM and the TGI (NCI-H522 lung) was 19.7 µM. The TGI (KM12 colon) was > 100 µM.
With `O=C(c1ccc(F)c(F)c1Nc1ccc(I)cc1F)N1CC(O)([C@H]2CCCCN2)C1` the GI50 (UACC-257 melanoma) was 0.08 µM, the TGI (UACC-257 melanoma) was 0.472 µM and the GI50 (IGROV1 ovarian) was 1.43 µM. For the same compound, the TGI (IGROV1 ovarian) was 13.9 µM, the GI50 (SF-268 CNS) was 9.83 µM and the TGI (SF-268 CNS) was 23.4 µM. It also gave a GI50 (RPMI-8226 leukemia) of 4.03 µM, a TGI (RPMI-8226 leukemia) of 20.8 µM and a GI50 (UO-31 renal) of 1.42 µM. It also gave a TGI (UO-31 renal) of 13.9 µM, a GI50 (NCI-H226 lung) of 4.8 µM and a TGI (NCI-H226 lung) of 22.8 µM. It also gave a GI50 (COLO 205 colon) of 0.0735 µM, a TGI (COLO 205 colon) of 4.1 µM and a GI50 (SK-MEL-5 melanoma) of 0.668 µM. For the same compound, the TGI (SK-MEL-5 melanoma) was 6.06 µM, the GI50 (NCI-H522 lung) was 8.01 µM and the TGI (NCI-H522 lung) was 22.9 µM. The GI50 (KM12 colon) was 1.12 µM and the TGI (KM12 colon) was 14 µM.
In the case of `O=c1oc2c(Br)c(O)c(Br)cc2c2ccccc12`, the TGI (UACC-257 melanoma) was 61.7 µM, the TGI (IGROV1 ovarian) was > 100 µM and the TGI (SF-268 CNS) was 69 µM. The TGI (RPMI-8226 leukemia) was 75.4 µM, the TGI (NCI-H226 lung) was 80.5 µM and the TGI (COLO 205 colon) was > 100 µM. For the same compound, the TGI (SK-MEL-5 melanoma) was 50.2 µM and the TGI (NCI-H522 lung) was 51.3 µM.
With `NC(=O)c1ncn(C2OC(CO)C(O)C2O)n1` (stereo unspecified) the GI50 (UACC-257 melanoma) was > 100 µM, the TGI (UACC-257 melanoma) was > 100 µM and the GI50 (IGROV1 ovarian) was > 100 µM. For the same compound, the TGI (IGROV1 ovarian) was > 100 µM, the GI50 (RPMI-8226 leukemia) was 80.5 µM and the TGI (RPMI-8226 leukemia) was > 100 µM. For the same compound, the GI50 (UO-31 renal) was > 100 µM, the TGI (UO-31 renal) was > 100 µM and the GI50 (NCI-H226 lung) was > 100 µM. For the same compound, the TGI (NCI-H226 lung) was > 100 µM, the GI50 (COLO 205 colon) was 55.2 µM and the TGI (COLO 205 colon) was > 100 µM. For the same compound, the GI50 (SK-MEL-5 melanoma) was > 100 µM, the TGI (SK-MEL-5 melanoma) was > 100 µM and the GI50 (NCI-H522 lung) was > 100 µM. The TGI (NCI-H522 lung) was > 100 µM, the GI50 (KM12 colon) was > 100 µM and the TGI (KM12 colon) was > 100 µM.
